Reference: article PMC3384716 (Steroids, 2012)

How the values were obtained:
ER = biological target: T1, ER (Homo sapiens, UniProt P03372); test: ER reporter gene assay; assay type: cell-based; settings: for Reporter Assay (% Activity) ER / inhibition of ER transactivation (in words): 10 μM compound; for Reporter Assay (% Activity) ER: 5 nM estradiol, 24 h, % of maximal luciferase activity (100%)
T1 sequence (P03372 1-595): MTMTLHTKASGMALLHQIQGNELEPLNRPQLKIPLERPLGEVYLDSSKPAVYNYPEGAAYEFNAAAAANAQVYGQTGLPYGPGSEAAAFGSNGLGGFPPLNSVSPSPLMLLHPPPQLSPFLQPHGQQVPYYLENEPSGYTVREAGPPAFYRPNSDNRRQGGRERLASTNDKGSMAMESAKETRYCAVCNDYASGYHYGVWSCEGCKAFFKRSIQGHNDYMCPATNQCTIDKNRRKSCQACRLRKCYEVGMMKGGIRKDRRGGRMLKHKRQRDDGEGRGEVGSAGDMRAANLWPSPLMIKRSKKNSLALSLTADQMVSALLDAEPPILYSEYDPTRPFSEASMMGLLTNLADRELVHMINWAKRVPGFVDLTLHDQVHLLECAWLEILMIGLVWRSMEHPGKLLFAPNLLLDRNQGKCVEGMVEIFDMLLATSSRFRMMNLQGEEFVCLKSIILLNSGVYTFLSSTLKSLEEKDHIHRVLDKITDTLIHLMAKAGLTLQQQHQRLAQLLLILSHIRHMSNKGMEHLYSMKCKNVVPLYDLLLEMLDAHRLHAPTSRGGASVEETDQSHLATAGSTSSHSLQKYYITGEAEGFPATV

pS2 mRNA = test: qRT-PCR of 17β-estradiol-induced pS2 mRNA; assay type: cell-based; settings: 2 hours; compound 51 at 5 μM
PR = biological target: T2, PR (Homo sapiens, UniProt P06401); test: PR reporter gene assay; assay type: cell-based; settings: for inhibition of PR transactivation (in words): 10 μM compound
T2 sequence (P06401 165-933 limits assumed): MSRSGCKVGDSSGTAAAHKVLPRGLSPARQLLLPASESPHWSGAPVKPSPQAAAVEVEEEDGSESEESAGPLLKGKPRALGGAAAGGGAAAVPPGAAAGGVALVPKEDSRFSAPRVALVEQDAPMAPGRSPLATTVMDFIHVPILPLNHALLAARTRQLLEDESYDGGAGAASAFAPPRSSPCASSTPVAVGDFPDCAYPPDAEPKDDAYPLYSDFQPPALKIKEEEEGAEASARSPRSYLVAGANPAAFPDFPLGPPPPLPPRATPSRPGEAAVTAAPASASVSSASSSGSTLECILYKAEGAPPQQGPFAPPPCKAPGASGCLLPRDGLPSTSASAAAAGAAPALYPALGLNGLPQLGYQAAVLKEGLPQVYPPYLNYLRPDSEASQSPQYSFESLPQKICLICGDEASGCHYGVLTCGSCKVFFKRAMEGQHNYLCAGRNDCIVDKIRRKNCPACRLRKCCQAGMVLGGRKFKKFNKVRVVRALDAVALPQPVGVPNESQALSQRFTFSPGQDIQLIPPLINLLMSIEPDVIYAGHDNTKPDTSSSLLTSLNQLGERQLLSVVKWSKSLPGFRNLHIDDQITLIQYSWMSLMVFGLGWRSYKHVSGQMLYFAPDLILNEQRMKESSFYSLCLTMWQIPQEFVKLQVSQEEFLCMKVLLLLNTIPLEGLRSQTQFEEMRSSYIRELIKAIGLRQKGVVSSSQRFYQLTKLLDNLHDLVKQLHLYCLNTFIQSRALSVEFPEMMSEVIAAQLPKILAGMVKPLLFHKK

AR = biological target: T3, AR (Homo sapiens, UniProt P10275); test: AR reporter gene assay; assay type: cell-based; settings: 10 μM compound
T3 sequence (P10275 1-920): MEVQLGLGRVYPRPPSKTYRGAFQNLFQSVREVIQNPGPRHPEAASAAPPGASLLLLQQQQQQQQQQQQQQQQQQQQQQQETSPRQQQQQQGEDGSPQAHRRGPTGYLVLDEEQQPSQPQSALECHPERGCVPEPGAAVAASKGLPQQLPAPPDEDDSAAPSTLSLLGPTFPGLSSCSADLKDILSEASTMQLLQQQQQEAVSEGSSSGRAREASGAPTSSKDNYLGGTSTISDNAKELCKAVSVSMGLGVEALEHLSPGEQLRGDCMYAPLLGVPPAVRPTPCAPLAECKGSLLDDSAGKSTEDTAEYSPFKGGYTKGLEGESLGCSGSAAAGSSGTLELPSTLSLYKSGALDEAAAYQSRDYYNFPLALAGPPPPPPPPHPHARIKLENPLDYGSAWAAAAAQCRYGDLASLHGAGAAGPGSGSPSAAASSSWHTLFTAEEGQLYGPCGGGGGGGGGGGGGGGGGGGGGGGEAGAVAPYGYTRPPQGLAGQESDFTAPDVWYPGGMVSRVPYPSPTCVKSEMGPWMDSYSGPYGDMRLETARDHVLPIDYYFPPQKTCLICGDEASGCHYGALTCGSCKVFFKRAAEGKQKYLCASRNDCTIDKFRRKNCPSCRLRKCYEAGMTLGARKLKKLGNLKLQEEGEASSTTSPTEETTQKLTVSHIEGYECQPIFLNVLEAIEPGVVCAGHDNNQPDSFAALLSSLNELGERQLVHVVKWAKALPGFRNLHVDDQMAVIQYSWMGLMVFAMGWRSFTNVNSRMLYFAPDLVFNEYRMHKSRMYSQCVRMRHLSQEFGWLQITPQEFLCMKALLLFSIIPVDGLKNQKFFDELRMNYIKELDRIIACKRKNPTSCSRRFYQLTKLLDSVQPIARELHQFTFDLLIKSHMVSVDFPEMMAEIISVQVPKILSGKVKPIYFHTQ

GR = biological target: T4, GR (Rattus norvegicus, UniProt P06536); test: GR reporter gene assay; assay type: cell-based, human; settings: 10 μM compound
T4 sequence (P06536 1-795): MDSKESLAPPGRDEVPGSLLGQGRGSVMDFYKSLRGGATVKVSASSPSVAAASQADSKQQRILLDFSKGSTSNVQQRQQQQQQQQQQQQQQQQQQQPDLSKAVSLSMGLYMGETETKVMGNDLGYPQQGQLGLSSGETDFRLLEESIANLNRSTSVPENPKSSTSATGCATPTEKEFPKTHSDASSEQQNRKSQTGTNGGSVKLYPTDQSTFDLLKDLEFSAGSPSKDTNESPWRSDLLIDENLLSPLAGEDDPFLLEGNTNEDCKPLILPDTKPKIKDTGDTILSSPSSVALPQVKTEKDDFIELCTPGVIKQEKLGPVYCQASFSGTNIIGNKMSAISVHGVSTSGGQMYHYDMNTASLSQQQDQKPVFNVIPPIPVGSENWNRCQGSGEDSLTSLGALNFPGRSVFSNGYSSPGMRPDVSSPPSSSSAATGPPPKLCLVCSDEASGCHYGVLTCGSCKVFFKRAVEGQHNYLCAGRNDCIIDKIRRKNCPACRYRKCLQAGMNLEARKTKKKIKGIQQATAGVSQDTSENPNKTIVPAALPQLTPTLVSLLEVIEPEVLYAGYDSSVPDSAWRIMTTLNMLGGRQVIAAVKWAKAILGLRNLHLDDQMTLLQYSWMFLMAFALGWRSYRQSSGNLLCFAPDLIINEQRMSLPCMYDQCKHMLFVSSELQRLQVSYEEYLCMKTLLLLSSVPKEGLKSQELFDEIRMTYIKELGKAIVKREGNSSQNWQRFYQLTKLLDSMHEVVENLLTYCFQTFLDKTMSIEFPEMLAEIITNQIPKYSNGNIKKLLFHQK

SMILES | Reporter Assay (% Activity) ER (ER) [%] | other results
CCCSc1nc2c([nH]1)c(=O)n(C)c(=O)n2C [Compound 7] | 111 | 
CCc1nc2c([nH]1)c(=O)n(C)c(=O)n2C [Compound 2] | 106 | 
CSc1nc2c([nH]1)c(=S)n(C)c(=S)n2C [Compound 13] | 101 | 
Cn1c(=O)c2[nH]c(Cc3ccccc3)nc2n(C)c1=O [Compound 4] | 94 | 
Cn1c(=O)c2[nH]c(SCc3ccccc3)nc2n(C)c1=O [Compound 8] | 104 | 
C[C@]12CC[C@@H]3c4ccc(O)cc4C[C@@H](CCCCCCCCC[S+]([O-])CCCC(F)(F)C(F)(F)F)[C@H]3[C@@H]1CC[C@@H]2O (stereo partly shown) [ICI 182,780, reference compound] |  | effect on 17β-estradiol induction of pS2 mRNA (pS2 mRNA): inhibited induction of pS2 mRNA
Cn1c(=O)c2[nH]cnc2n(C)c1=O [Compound 1, Theophylline, reference compound] |  | inhibition of ER transactivation (in words) (ER): did not inhibit; activity at 10 µM (ER; read-out: Reporter Assay (% Activity) ER): 93%; inhibition of PR transactivation (in words) (PR): did not inhibit; activity at 10 µM (PR; T47D, read-out: Reporter Assay (% Activity) PR): 105%
CCCCc1nc2c([nH]1)c(=O)n(C)c(=O)n2C [Compound 3] | 88 | 
CCCC(C)Sc1nc2c([nH]1)c(=S)n(C)c(=O)n2C (stereo not shown) [Compound 45] | 94 | inhibition of ER transactivation (in words) (ER): no activity; inhibition of PR transactivation (in words) (PR): moderately potent inhibitors; inhibition of AR transactivation (in words) (AR): no activity; inhibition of GR transactivation (in words) (GR): no activity
CCCSc1nc2c([nH]1)c(=S)n(C)c(=S)n2C [Compound 19] | 79 | 
CCCCCCCCCCSc1nc2c([nH]1)c(=O)n(C)c(=O)n2C [Compound 37] | 109 | 
CSc1nc2c([nH]1)c(=O)n(C)c(=O)n2C [Compound 10] | 6 | 
